This is an account of results in paper PMC8062481, “Crystal structures of an E1–E2–ubiquitin thioester mimetic reveal molecular mechanisms of transthioesterification” (Nature Communications, 2021).

For assay [1], the target named is T1, Uba1–Cdc34^A141K–Ub(t) (covalently trapped E1–E2–ubiquitin thioester mimetic) (Saccharomyces cerevisiae, UniProt P22515).
T1 construct: Uba1 11-1024 and Cdc34 1-195 (A141K), N-terminal TEV-cleavable 6xHis, E. coli BL21(DE3); Uba1 C600-Cdc34 C95 disulfide; Ub Gly76 isopeptide-linked to Cdc34 K141; with Ubiquitin-conjugating enzyme E2-34 kDa; Ubiquitin
The experiment in a line: X-ray crystallography, […] Å. Conditions: crystals grown with 1 mM ATP, 5 mM MgCl2 and excess Ub; ATP binding pocket of Uba1 adenylation domain; AMP in seven of eight copies.

Assay [2] addresses T2, S. cerevisiae Uba1 residues 11-1024 (S. cerevisiae, UniProt P22515 11-1024, Cys600 disulfide-linked to Cys95 of Cdc34 (in the crystallised complex)).
T2 construct: Uba1 (ubiquitin E1), S. cerevisiae, residues 11-1024; In the structure it is covalently trapped with Cdc34^A141K-Ub(t) through a disulfide between the catalytic cysteines; also called E1; ScUba1; source: E. coli BL21 (DE3) Codon Plus, purified (Ni-NTA, Superdex 200, MonoQ); not shown: His6, N-terminal, cleaved
The experiment in a line: crystal structure; covalently trapped Uba1–Cdc34^A141K–Ub(t) complex (Cys600–Cys95 disulfide, A141K–Gly76 isopeptide bond), 100 μM, crystallised with free Ub (200 μM), 1 mM ATP and 5 mM MgCl2 at 18 °C; 3.43 Å; eight copies, four open and four closed. As to conditions: both partners purified.

T2 sequence (P22515 11-1024): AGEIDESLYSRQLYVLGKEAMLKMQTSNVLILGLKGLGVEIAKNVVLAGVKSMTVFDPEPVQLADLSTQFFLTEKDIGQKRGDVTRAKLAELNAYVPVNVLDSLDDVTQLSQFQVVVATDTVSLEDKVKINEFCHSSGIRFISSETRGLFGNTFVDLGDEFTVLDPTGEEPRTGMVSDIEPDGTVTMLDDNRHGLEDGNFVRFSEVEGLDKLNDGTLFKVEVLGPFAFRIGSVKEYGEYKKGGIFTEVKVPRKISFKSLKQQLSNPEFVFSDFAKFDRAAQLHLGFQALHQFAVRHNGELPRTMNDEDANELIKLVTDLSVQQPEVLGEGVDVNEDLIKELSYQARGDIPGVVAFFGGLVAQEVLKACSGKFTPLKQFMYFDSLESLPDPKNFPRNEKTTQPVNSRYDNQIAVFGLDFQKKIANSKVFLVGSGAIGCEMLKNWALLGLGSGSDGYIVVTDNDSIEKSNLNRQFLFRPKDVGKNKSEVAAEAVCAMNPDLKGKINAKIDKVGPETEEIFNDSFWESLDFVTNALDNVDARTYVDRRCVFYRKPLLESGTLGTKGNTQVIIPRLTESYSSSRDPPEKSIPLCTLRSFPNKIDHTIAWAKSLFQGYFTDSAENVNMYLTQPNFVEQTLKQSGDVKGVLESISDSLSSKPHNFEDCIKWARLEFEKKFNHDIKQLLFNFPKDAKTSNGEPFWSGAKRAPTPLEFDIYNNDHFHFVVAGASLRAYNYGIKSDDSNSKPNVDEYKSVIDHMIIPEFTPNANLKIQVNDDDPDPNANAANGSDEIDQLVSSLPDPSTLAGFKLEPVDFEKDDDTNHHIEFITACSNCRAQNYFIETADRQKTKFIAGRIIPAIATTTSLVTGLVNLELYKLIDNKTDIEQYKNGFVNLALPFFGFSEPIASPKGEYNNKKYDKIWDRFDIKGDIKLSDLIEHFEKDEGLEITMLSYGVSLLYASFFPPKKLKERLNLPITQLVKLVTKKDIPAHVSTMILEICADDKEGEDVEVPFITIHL

For the molecule `Nc1ncnc2c1ncn2[C@@H]1O[C@H](COP(=O)(O)O)[C@@H](O)[C@H]1O` [AMP], the “X-ray crystallography, 3.43 Å” value in assay [1] is “strong electron density into which AMP (but not the β and γ phosphates of ATP)”.

B1: S. cerevisiae Cdc34 residues 1-195 with A141K (Cdc34^A141K) (enzyme, UniProt P14682 1-195, looked up)
chain: MSSRKSTASSLLLRQYRELTDPKKAIPSFHIELEDDSNIFTWNIGVMVLNEDSIYHGGFFKAQMRFPEDFPFSPPQFRFTPAIYHPNVYRDGRLCISILHQSGDPMTDEPDAETWSPVQTVESVLISIVSLLEDPNINSPKNVDAAVDYRKNPEQYKQRVKMEVERSKQDIPKGFIMPTSESAYISQSKLDEPES
modifications: Lys141 (A141K) isopeptide-linked to Gly76 of Ub(t); Cys95 disulfide-linked to Cys600 of Uba1
notes: Cdc34 (ubiquitin E2), S. cerevisiae, residues 1-195 (Cdc34^ΔCT) with A141K; Stands in the structure as the Cdc34^A141K-Ub(t) thioester mimetic cross-linked to Uba1; also called E2; Cdc34^ΔCT A141K; source: E. coli BL21 (DE3) Codon Plus, purified (Ni-NTA, Superdex 75, MonoQ); not shown: His6, N-terminal, cleaved
Take B1: the binding result in assay [2] is “binds”.
